Source: PMC5729930, “Bitopic fluorescent antagonists of the A2A adenosine receptor based on pyrazolo[4,3-e][1,2,4]triazolo[1,5-c]pyrimidin-5-amine functionalized congeners” (MedChemComm, 2017)
Read-outs that look alike come from different tables or passages of the source. Marks after values point to notes of the source that are not given here.

What was measured:
A3AR [1] = molecular target: T1, A3AR (Homo sapiens, UniProt P0DMS8); assay: Competition radioligand binding, hA3AR ([125I]I-AB-MECA); settings: for inhibition at 10 µM: percent inhibition at 10 μM, read-out: % inhib, A3
T1 construct: expressed in transfected cells
T1 sequence (P0DMS8 1-318): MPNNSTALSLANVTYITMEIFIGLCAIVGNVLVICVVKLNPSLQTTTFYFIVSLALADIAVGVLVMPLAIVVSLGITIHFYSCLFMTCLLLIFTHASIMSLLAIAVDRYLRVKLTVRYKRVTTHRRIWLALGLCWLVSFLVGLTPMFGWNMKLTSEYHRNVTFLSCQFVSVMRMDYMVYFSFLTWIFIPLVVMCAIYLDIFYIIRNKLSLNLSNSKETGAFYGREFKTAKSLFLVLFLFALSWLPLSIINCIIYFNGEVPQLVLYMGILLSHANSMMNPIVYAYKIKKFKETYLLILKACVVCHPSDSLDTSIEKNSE
Experimental: (§1) The affinity of the amine congeners and other antagonists was measured using standard radioligand binding assays for hA1, A2A and A3ARs (Table 1).[1],[13],[14],[22] Membranes of human embryonic kidney (HEK)293 cells expressing the AR of interest were used in the assay. Primary amine congeners 6a–6d containing spacers of 2–5 methylenes were similar in terms of hA2AAR affinity (Ki 6–9 nM), with the butylamino congener 6c displaying the highest A2AAR selectivity in the series. The affinity of this compound for the hA3AR was determined to be 6.0 μM, with only slightly higher hA1AR affinity. Homologation to 6 methylenes in compound 6e lowered A2AAR affinity. […] No dependence of the affinity on the chain length was evident when comparing AlexaFluor647 conjugates 9 and 10. […]
(§2) Radioligand binding assays: Cell membranes were prepared as reported.1
(§3) Binding assays were carried out using standard radioligands and membrane preparations from HEK-293 cells stably expressing the human (h) A1, A2A or A3ARs or mouse (m) A1, A2A or A3ARs. The radioligands used were: A1AR, [3H]8-cyclopentyl-1,3-dipropylxanthine 14; A2AAR, [3H]2; A3AR, [125I]N6-(4-amino-3-iodobenzyl)adenosine-5′-N-methyluronamide 16. The radioligand for archival A2AAR affinity data presented in Table 1 was [3H]2-[p-(2-carboxyethyl)phenyl-ethylamino]-5′-N-ethylcarboxamidoadenosine 15. Nonspecific binding was determined using 10 µM 8-[4-[[[[(2-aminoethyl)amino]carbonyl]methyl]oxy]phenyl]-1,3-dipropylxanthine 17 (A1AR and A2AAR) or 10 µM adenosine-5′-N-ethyluronamide 18 (A3AR). HEK-293 cells expressing recombinant mA1, A2A, or A3AR […]
(§4) Protein was determined as reported.2 In all the binding experiments, IC50 values and Ki values were calculated using GraphPad Prism software (San Diego, CA). Values are expressed as mean±SEM. […]
(§5) Med. Chem. Comm., 2015, 6:555-563.
(§6) 2. Bradford, M. M. A rapid and sensitive method for the quantitation of microgram quantities of protein utilizing the principle of protein -dye binding. Anal. Biochem. 1976, 72, 248-254.

A1AR [2] = molecular target: T2, A1AR (Homo sapiens, UniProt P30542); assay: Competition radioligand binding, hA1AR ([3H]DPCPX); settings: [3H]DPCPX 0.5 nM; for Ki: HEK-293 membranes, 1 h 25 °C, mean ± SEM, read-out: Affinity, Ki, A1; for inhibition at 10 µM: percent inhibition at 10 μM
T2 construct: expressed in transfected cells
T2 sequence (P30542 1-326): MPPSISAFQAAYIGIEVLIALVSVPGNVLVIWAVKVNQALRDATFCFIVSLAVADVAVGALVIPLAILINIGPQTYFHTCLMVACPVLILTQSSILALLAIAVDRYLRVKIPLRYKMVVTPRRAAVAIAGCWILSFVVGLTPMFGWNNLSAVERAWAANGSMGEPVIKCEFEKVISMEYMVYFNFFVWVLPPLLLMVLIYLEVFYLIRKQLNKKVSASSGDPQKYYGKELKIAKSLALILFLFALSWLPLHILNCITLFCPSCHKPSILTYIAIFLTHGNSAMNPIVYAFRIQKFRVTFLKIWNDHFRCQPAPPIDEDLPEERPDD
Experimental: as §1, §2, §3, §4, §5, §6

A2AAR = molecular target: T3, A2AAR (Homo sapiens, UniProt P29274); assay: Competition radioligand binding, hA2AAR ([3H]ZM241385 or [3H]CGS21680); settings: human A2AAR, HEK-293 membranes, [3H]ZM241385 1.0 nM, 1 h 25 °C, mean ± SEM; read-out: Affinity, Ki, A2A
T3 construct: expressed in transfected cells
T3 sequence (P29274 whole entry): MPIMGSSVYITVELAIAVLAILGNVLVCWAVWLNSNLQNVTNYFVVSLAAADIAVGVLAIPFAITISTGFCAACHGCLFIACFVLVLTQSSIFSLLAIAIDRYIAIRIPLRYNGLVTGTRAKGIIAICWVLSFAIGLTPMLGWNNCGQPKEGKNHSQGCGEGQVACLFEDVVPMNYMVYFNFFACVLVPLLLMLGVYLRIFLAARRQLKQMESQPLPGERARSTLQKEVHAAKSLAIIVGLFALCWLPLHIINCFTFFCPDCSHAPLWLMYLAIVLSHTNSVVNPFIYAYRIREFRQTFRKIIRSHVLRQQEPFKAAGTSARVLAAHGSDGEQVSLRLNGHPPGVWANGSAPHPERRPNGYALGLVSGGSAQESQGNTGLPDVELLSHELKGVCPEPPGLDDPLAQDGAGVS
Experimental: (§7) The affinity of the amine congeners and other antagonists was measured using standard radioligand binding assays for hA1, A2A and A3ARs (Table 1).[1],[13],[14],[22] Membranes of human embryonic kidney (HEK)293 cells expressing the AR of interest were used in the assay. Primary amine congeners 6a–6d containing spacers of 2–5 methylenes were similar in terms of hA2AAR affinity (Ki 6–9 nM), with the butylamino congener 6c displaying the highest A2AAR selectivity in the series. The affinity of this compound for the hA3AR was determined to be 6.0 μM, with only slightly higher hA1AR affinity. Homologation to 6 methylenes in compound 6e lowered A2AAR affinity. […] No dependence of the affinity on the chain length was evident when comparing AlexaFluor647 conjugates 9 and 10.
Fig. 1 Antagonist radioligand ([^3H]2, 1.0 nM) binding inhibition curves for the hA2AAR for four antagonist fluorescent conjugates. Compound numbers: MRS7322 9, MRS7395 10, MRS7396 11 and MRS7416 12. Membranes from HEK-293 cells expressing the hA2AAR were used, and their incubation was performed for 1 h at 25 °C. Results are expressed as the mean ± SEM.
(§8) Cell culture for membrane binding assays and flow cytometry: HEK-293 cells stably expressing the A2AAR were grown in Dulbecco’s Modified Eagle’s Medium (DMEM) with 10% FBS, 100 units/ml penicillin, […] streptomycin, 2 mM L-glutamine and 0.500 mg/mL G418 Sulfate (Geneticin). […]
as §2, §3, §4, §5, §6

5HT2A serotonin receptor = molecular target: T4, 5HT2A serotonin receptor (Homo sapiens, UniProt P28223); assay: PDSP off-target radioligand binding, 5HT2A; settings: PDSP radioligand binding inhibition
T4 construct: PDSP (screening service)
T4 sequence (P28223 whole entry): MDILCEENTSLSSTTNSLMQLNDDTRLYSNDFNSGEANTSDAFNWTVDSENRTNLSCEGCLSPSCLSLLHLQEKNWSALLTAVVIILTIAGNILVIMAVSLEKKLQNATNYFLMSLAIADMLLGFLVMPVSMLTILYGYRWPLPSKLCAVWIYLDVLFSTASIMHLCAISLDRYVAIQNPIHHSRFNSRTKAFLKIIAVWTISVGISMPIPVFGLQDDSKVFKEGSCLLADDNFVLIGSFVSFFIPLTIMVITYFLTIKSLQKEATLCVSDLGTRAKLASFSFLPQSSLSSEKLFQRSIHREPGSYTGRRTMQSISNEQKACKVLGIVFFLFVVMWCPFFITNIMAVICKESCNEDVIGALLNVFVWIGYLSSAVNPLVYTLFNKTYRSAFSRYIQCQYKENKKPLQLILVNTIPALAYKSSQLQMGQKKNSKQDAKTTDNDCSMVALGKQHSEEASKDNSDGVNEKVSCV
Experimental: (§9) . Off-target binding activities at 45 diverse receptors were determined by PDSP[25] for selected compounds: 6c and 13 (ESI ^†). […]; 1.92 μM, 5HT2B receptor. Thus, the primary amine precursor of the fluorescent conjugates 10–12 was not promiscuous in its interaction with other proteins, i.e. this chemical series is not associated with pan-assay interference compounds.[26]
(§10) Chinese hamster ovary (CHO) cells stably expressing the human A2AAR were cultured in Dulbecco's Modified Eagle Medium (Mediatech, Manassas, VA) supplemented with 10% fetal bovine serum, 100 units/ml penicillin, 100 µg/ml streptomycin and 2 µmol/ml glutamine. Cells were plated in 96-well plates in 100 µl medium. After 24 h, the medium was removed and cells were washed three times with 100 µl DMEM, containing 50 mM HEPES, pH 7.4. Cells were treated with antagonists (or medium for control) in the presence of rolipram (10 µM) and adenosine deaminase (3 units/ml) and 5 min later with agonist for 20 min. The reaction was terminated by removal of the supernatant, and cells were lysed upon the addition of 100 µl of lysis buffer (0.3% Tween-20). cAMP was measured using ALPHAScreen cAMP kits (PerkinElmer, Boston, MA) as instructed by the manufacturer.
(§11) Refer to: http://pdspdb.unc.edu for full list of comprehensive screen at 45 targets.
(§12) 5HT2A serotonin receptor: […]

5HT2B receptor = molecular target: T5, 5HT2B receptor (Homo sapiens, UniProt P41595); assay: PDSP off-target radioligand binding, 5HT2B; settings: PDSP radioligand binding inhibition
T5 construct: PDSP (screening service)
T5 sequence (P41595 whole entry): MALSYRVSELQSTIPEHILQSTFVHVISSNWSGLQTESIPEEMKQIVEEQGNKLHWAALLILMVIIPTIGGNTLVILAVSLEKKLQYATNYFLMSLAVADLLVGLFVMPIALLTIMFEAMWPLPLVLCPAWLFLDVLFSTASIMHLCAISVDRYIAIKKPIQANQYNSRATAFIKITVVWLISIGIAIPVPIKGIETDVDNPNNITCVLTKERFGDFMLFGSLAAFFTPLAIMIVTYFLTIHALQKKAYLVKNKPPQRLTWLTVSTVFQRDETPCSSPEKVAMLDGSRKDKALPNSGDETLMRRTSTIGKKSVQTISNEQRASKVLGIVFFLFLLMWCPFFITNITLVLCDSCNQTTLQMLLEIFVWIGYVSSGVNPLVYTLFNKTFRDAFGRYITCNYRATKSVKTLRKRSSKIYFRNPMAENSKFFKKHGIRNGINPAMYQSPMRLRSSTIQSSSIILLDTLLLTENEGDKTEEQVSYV
Experimental: as §9, §10, §11, §12

A1AR [3] = molecular target: T2, A1AR; design: method as in earlier work; settings: percent inhibition at 10 μM, 14 (Kumar et al. and Kecskés et al.); cited from earlier work
A3AR [4] = molecular target: T1, A3AR; design: method as in earlier work; settings: percent inhibition at 10 μM, 14 (Kumar et al. and Kecskés et al.); cited from earlier work
mA2AAR = molecular target: T6, mA2AAR (Mus musculus, UniProt Q60613); assay: Competition radioligand binding, mA2AAR; settings: mouse A2AAR, HEK-293 membranes, mean ± SEM; read-out: Affinity, Ki, A2A (m) (converted)
T6 construct: expressed in transfected cells; host or cells: HEK-293
T6 sequence (Q60613 whole entry): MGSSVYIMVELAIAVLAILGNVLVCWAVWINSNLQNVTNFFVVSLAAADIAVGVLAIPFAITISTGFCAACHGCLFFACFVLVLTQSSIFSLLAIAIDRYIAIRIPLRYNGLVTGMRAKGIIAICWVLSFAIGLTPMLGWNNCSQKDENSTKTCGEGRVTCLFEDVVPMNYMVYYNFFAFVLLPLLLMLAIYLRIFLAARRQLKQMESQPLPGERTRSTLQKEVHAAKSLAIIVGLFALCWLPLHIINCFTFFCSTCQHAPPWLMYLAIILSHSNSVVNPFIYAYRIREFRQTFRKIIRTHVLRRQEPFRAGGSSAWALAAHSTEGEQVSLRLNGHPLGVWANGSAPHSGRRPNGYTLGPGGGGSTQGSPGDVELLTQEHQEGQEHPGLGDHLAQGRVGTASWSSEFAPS
Experimental: as §7, §8, §2, §3, §4, §5, §6

mA3AR = molecular target: T7, mA3AR (Mus musculus, UniProt Q61618); assay: Competition radioligand binding, mA3AR; settings: mouse A3AR, percent inhibition at 10 μM; read-out: % inhib, A3 (m) (converted)
T7 construct: expressed in transfected cells; host or cells: HEK-293
T7 sequence (Q61618 1-319): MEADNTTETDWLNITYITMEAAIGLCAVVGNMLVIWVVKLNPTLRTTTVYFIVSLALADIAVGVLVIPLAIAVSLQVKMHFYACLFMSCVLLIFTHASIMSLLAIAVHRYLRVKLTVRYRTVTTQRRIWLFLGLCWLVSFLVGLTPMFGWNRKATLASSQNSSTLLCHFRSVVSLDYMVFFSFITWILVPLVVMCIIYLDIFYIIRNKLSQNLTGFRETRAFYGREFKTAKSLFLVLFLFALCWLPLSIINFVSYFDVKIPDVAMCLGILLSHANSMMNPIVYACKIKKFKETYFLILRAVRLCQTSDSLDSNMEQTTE
Experimental: as §1, §2, §3, §4, §5, §6

mA1AR = molecular target: T8, mA1AR (Mus musculus, UniProt Q60612); assay: Competition radioligand binding, mA1AR; settings: mouse A1AR, percent inhibition at 10 μM
T8 construct: expressed in transfected cells; host or cells: HEK-293
T8 sequence (Q60612 1-326): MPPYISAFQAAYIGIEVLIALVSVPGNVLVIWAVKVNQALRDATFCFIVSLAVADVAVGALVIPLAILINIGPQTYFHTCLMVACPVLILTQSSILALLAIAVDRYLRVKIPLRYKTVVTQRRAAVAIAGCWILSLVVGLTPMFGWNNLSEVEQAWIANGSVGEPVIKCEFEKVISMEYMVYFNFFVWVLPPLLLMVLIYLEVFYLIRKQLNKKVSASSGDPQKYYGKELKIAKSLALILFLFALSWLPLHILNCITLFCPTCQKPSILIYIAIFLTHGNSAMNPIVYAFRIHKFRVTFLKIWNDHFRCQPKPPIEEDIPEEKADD
Experimental: as §1, §2, §3, §4, §5, §6

[5] = HEK-293 membranes, [125I]I-AB-MECA 0.2 nM, 1 h 25 °C, mean ± SEM, read-out: Affinity, Ki, A3

| Ki (A3AR [1]; [5]) | Ki (A1AR [2]) | Ki (A2AAR) | Compound | % inhib, A1 (A1AR [3]) | % inhib, A3 (A3AR [4]) | also measured |
| --- | --- | --- | --- | --- | --- | --- |
| 2170 ± 660 nM | 1300 ± 350 nM | 9.29 ± 7.92 nM | NCCCNC(=O)COc1ccc(CCCn2ncc3c2nc(N)n2nc(-c4ccco4)nc32)cc1 [6b] |  |  |  |
| 5990 ± 2900 nM | 2390 ± 100 nM | 6.46 ± 1.63 nM | NCCCCNC(=O)COc1ccc(CCCn2ncc3c2nc(N)n2nc(-c4ccco4)nc32)cc1 [6c] |  |  | Ki (5HT2A serotonin receptor): 3360 nM; Ki (A3AR [1]; read-out: affinity for the hA3AR): 6000 nM; Ki (5HT2B receptor): 1920 nM |
| 656 ± 132 nM | 1910 ± 120 nM | 6.36 ± 3.58 nM | NCCCCCNC(=O)COc1ccc(CCCn2ncc3c2nc(N)n2nc(-c4ccco4)nc32)cc1 [6d] |  |  |  |
| 2070 ± 850 nM | 6500 ± 2830 nM | 22.8 ± 8.45 nM | NCCCCCCNC(=O)COc1ccc(CCCn2ncc3c2nc(N)n2nc(-c4ccco4)nc32)cc1 [6e] |  |  |  |
|  |  |  | COc1ccc(CCCn2ncc3c2nc(N)n2nc(-c4ccco4)nc32)cc1 [compound 3, 5-amino-7-(3-(4-methoxy)phenylpropyl)-2-(2-furyl)pyrazolo[4,3-e]-1,2,4-triazolo[1,5-c]pyrimidine] | (35 ± 5%) ^c | (67 ± 1%) ^c |  |
|  |  |  | N=c1ccc2c(-c3ccc(C(=O)NCCNC(=O)COc4ccc(CCCn5ncc6c5nc(N)n5nc(-c7ccco7)nc65)cc4)cc3C(=O)O)c3ccc(N)c(S(=O)(=O)O)c3oc-2c1S(=O)(=O)O [compound 5] | (20 ± 3%) ^c | (4 ± 2%) ^c |  |
|  |  |  | Nc1nc2c(cnn2CCCc2ccc(O)cc2)c2nc(-c3ccco3)nn12 [compound 7] | (66 ± 2%) ^c | (34 ± 3%) ^c |  |
|  |  | 332 ± 165 nM | CC1(C)C(/C=C/C=C/C=C2/N(CCCS(=O)(=O)O)c3ccc(S(=O)(=O)O)cc3C2(C)CCCCCC(=O)NCCNC(=O)COc2ccc(CCCn3ncc4c3nc(N)n3nc(-c5ccco5)nc43)cc2)=[N+](CCCS(=O)(=O)O)c2ccc(S(=O)(=O)[O-])cc21 (stereo not drawn) [compound 9] |  |  | Ki (mA2AAR): 458 nM; inhibition at 10 µM (A3AR [1]; [125I]I-AB-MECA 0.2 nM): 21%; inhibition at 10 µM (A1AR [2]): 13%; inhibition at 10 µM (mA3AR): 4%; inhibition at 10 µM (mA1AR): 3% |
|  |  | 295 ± 176 nM | CC1(C)C(/C=C/C=C/C=C2/N(CCCS(=O)(=O)O)c3ccc(S(=O)(=O)O)cc3C2(C)CCCCCC(=O)NCCCCNC(=O)COc2ccc(CCCn3ncc4c3nc(N)n3nc(-c5ccco5)nc43)cc2)=[N+](CCCS(=O)(=O)O)c2ccc(S(=O)(=O)[O-])cc21 (stereo not drawn) [compound 10] |  |  | inhibition at 10 µM (A3AR [1]; [125I]I-AB-MECA 0.2 nM): 21%; inhibition at 10 µM (A1AR [2]): 20% |
